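Assay format: 96-well plates, 48-hour exposure. GI50 = concentration required for 50% inhibition of growth.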 Active and inactive are the calls of the source. No stated cut-off is given here; in the data, active = GI50 up to about 1.1 µM and inactive = higher.
Assays:
Test in all cases: DTP human tumour cell line panel, 48 h
786-0 = system: 786-0
A498 = system: A498
A549 = system: A549
CAKI-1 = system: CAKI-1
CCRF-CEM = system: CCRF-CEM
COLO 205 = system: COLO 205
DLD-1 = system: DLD-1
DMS-114 = system: DMS-114
DMS-273 = system: DMS-273
EKVX = system: EKVX
HCC 2998 = system: HCC 2998
HCT-116 = system: HCT-116
HCT-15 = system: HCT-15
HL-60 = system: HL-60
HOP-18 = system: HOP-18
HOP-92 = system: HOP-92
HT-29 = system: HT-29
IGROV-1 = system: IGROV-1
K562 = system: K562
KM12 = system: KM12
LOX IMVI = system: LOX IMVI
LXFL 529 = system: LXFL 529
M14 = system: M14
M19-MEL = system: M19-MEL
MOLT-4 = system: MOLT-4
NCI-H226 = system: NCI-H226
NCI-H23 = system: NCI-H23
NCI-H460 = system: NCI-H460
NCI-H522 = system: NCI-H522
OVCAR-3 = system: OVCAR-3
OVCAR-8 = system: OVCAR-8
RPMI-8226 = system: RPMI-8226
RXF 393 = system: RXF 393
RXF 631 = system: RXF 631
SF-295 = system: SF-295
SF-539 = system: SF-539
SK-MEL-28 = system: SK-MEL-28
SK-MEL-5 = system: SK-MEL-5
SK-OV-3 = system: SK-OV-3
SN12C = system: SN12C
SNB-75 = system: SNB-75
SNB-78 = system: SNB-78
SW-620 = system: SW-620
TK-10 = system: TK-10
U-251 = system: U-251
UACC-257 = system: UACC-257
UACC-62 = system: UACC-62
UO-31 = system: UO-31
ACHN = system: ACHN
HOP-62 = system: HOP-62
KM-20L2 = system: KM-20L2
Malme-3M = system: Malme-3M
OVCAR-4 = system: OVCAR-4
OVCAR-5 = system: OVCAR-5
SF-268 = system: SF-268
SK-MEL-2 = system: SK-MEL-2
SNB-19 = system: SNB-19

COC12OCCN(C)C1=CC(=O)C1N=NCC12 (configuration not stated)
GI50 (786-0): > 100 µM (inactive) | GI50 (A498): > 100 µM (inactive) | GI50 (A549): > 100 µM (inactive) | GI50 (CAKI-1): > 100 µM (inactive) | GI50 (CCRF-CEM): > 100 µM (inactive) | GI50 (COLO 205): > 100 µM (inactive) | GI50 (DLD-1): > 100 µM (inactive) | GI50 (DMS-114): > 100 µM (inactive) | GI50 (DMS-273): > 100 µM (inactive) | GI50 (EKVX): > 100 µM (inactive) | GI50 (HCC 2998): > 100 µM (inactive) | GI50 (HCT-116): > 100 µM (inactive) | GI50 (HCT-15): > 100 µM | GI50 (HL-60): > 100 µM (inactive) | GI50 (HOP-18): > 100 µM (inactive) | GI50 (HOP-92): > 100 µM (inactive) | GI50 (HT-29): > 100 µM (inactive) | GI50 (IGROV-1): > 100 µM (inactive) | GI50 (K562): > 100 µM (inactive) | GI50 (KM12): > 100 µM (inactive) | GI50 (LOX IMVI): > 100 µM (inactive) | GI50 (LXFL 529): > 100 µM (inactive) | GI50 (M14): > 100 µM (inactive) | GI50 (M19-MEL): > 100 µM (inactive) | GI50 (MOLT-4): > 100 µM (inactive) | GI50 (NCI-H226): > 100 µM (inactive) | GI50 (NCI-H23): > 100 µM (inactive) | GI50 (NCI-H460): > 100 µM (inactive) | GI50 (NCI-H522): > 100 µM (inactive) | GI50 (OVCAR-3): > 100 µM (inactive) | GI50 (OVCAR-8): > 100 µM (inactive) | GI50 (RPMI-8226): > 100 µM (inactive) | GI50 (RXF 393): > 100 µM (inactive) | GI50 (RXF 631): > 100 µM (inactive) | GI50 (SF-295): > 100 µM (inactive) | GI50 (SF-539): > 100 µM (inactive) | GI50 (SK-MEL-28): > 100 µM (inactive) | GI50 (SK-MEL-5): > 100 µM (inactive) | GI50 (SK-OV-3): > 100 µM (inactive) | GI50 (SN12C): > 100 µM (inactive) | GI50 (SNB-75): > 100 µM (inactive) | GI50 (SNB-78): > 100 µM (inactive) | GI50 (SW-620): > 100 µM (inactive) | GI50 (TK-10): > 100 µM (inactive) | GI50 (U-251): > 100 µM (inactive) | GI50 (UACC-257): > 100 µM (inactive) | GI50 (UACC-62): > 100 µM (inactive) | GI50 (UO-31): > 100 µM (inactive)

CC(C)C(=O)N1Cc2cc(Cl)cc(Cl)c2OC(=O)c2ccccc21
GI50 (786-0): 35 µM (inactive) | GI50 (A498): 27.5 µM (inactive) | GI50 (A549): 31 µM (inactive) | GI50 (ACHN): 24.5 µM (inactive) | GI50 (CAKI-1): 22.8 µM (inactive) | GI50 (CCRF-CEM): 27 µM (inactive) | GI50 (COLO 205): 59.3 µM (inactive) | GI50 (DLD-1): 29.9 µM (inactive) | GI50 (DMS-114): 30.1 µM (inactive) | GI50 (DMS-273): 38.7 µM (inactive) | GI50 (EKVX): 27.7 µM (inactive) | GI50 (HCC 2998): 28.4 µM (inactive) | GI50 (HCT-116): 38 µM (inactive) | GI50 (HCT-15): 27.5 µM | GI50 (HL-60): 22.6 µM (inactive) | GI50 (HOP-18): 25.6 µM (inactive) | GI50 (HOP-62): 31.2 µM (inactive) | GI50 (HOP-92): 24.7 µM (inactive) | GI50 (HT-29): 34 µM (inactive) | GI50 (IGROV-1): 29.5 µM (inactive) | GI50 (K562): 51.1 µM (inactive) | GI50 (KM-20L2): 23.7 µM (inactive) | GI50 (KM12): 32.8 µM (inactive) | GI50 (LOX IMVI): 23.3 µM (inactive) | GI50 (LXFL 529): 18.3 µM (inactive) | GI50 (M14): 25.8 µM (inactive) | GI50 (MOLT-4): 22.6 µM (inactive) | GI50 (Malme-3M): 20.9 µM (inactive) | GI50 (NCI-H226): 23.1 µM (inactive) | GI50 (NCI-H23): 66.2 µM (inactive) | GI50 (NCI-H460): 33 µM (inactive) | GI50 (NCI-H522): 21 µM (inactive) | GI50 (OVCAR-3): 22 µM (inactive) | GI50 (OVCAR-4): 28.8 µM (inactive) | GI50 (OVCAR-5): 27 µM (inactive) | GI50 (OVCAR-8): 33.7 µM (inactive) | GI50 (RPMI-8226): 25.5 µM (inactive) | GI50 (RXF 631): 40.3 µM (inactive) | GI50 (SF-268): 19.6 µM (inactive) | GI50 (SF-295): 26.7 µM (inactive) | GI50 (SF-539): 18.7 µM (inactive) | GI50 (SK-MEL-28): 42.4 µM (inactive) | GI50 (SK-MEL-2): 21.5 µM (inactive) | GI50 (SK-MEL-5): 19.2 µM (inactive) | GI50 (SK-OV-3): 25.9 µM (inactive) | GI50 (SN12C): 32.7 µM (inactive) | GI50 (SNB-19): 35.2 µM (inactive) | GI50 (SNB-75): 30.3 µM (inactive) | GI50 (SNB-78): 67.9 µM (inactive) | GI50 (SW-620): 33 µM (inactive) | GI50 (TK-10): 29.7 µM (inactive) | GI50 (UACC-257): 17.2 µM (inactive) | GI50 (UACC-62): 19.8 µM (inactive) | GI50 (UO-31): 31.7 µM (inactive)
